The source made the active and inactive calls.

Targets include Aurora kinase B (Homo sapiens, UniProt Q96GD4); Myosin-14 (Homo sapiens, UniProt Q7Z406); Obg-like ATPase 1 (Homo sapiens, UniProt Q9NTK5).
Assay [1] has as its target T1, Mitogen-activated protein kinase kinase kinase kinase 2 (Homo sapiens, UniProt Q12851).
T1 sequence (Q12851 whole entry): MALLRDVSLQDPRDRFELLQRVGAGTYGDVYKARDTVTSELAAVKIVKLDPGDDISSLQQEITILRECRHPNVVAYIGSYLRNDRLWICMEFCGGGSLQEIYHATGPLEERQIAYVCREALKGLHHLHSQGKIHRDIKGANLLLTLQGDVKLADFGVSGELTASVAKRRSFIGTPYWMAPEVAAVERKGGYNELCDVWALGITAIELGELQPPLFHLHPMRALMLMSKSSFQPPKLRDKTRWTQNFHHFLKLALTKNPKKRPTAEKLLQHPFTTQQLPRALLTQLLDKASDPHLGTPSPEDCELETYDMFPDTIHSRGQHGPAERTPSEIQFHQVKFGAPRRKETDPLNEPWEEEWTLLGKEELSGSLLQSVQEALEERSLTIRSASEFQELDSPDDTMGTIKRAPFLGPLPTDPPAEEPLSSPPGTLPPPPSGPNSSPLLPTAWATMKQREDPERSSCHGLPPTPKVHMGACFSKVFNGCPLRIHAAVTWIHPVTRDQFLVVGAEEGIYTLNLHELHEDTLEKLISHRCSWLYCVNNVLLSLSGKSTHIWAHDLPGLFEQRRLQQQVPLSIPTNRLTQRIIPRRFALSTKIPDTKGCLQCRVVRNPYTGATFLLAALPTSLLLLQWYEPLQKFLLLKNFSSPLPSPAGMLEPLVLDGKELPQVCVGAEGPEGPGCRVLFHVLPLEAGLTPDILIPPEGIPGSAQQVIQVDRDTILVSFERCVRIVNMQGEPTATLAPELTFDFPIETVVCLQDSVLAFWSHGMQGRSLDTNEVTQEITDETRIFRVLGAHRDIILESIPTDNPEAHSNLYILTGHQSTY

The target in assay [2] is T2, Serine/threonine-protein kinase STK11 (Homo sapiens, UniProt Q15831).
T2 sequence (Q15831 whole entry): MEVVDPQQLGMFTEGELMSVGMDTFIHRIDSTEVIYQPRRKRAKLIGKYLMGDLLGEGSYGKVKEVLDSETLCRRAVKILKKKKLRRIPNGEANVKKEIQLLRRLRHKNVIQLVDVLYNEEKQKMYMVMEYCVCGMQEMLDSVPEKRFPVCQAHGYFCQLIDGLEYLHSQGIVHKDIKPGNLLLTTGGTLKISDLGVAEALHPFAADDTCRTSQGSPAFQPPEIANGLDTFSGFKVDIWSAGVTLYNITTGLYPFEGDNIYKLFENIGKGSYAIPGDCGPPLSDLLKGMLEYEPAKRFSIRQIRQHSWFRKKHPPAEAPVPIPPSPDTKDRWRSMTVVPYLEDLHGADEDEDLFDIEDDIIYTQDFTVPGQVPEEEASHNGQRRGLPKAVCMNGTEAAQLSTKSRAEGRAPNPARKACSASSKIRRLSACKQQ

Assay [3] concerns the target T3, Ribosyldihydronicotinamide dehydrogenase [quinone] (Homo sapiens, UniProt P16083).
T3 sequence (P16083 whole entry): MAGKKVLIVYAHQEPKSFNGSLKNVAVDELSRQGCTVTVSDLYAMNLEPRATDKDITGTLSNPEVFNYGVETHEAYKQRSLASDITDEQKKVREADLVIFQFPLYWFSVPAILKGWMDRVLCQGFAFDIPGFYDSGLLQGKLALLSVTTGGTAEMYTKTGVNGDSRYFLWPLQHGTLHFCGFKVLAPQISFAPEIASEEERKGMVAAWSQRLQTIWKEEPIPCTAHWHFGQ

Assay [4] has as its target NADH dehydrogenase [ubiquinone] 1 alpha subcomplex subunit 13 (Homo sapiens, UniProt Q9P0J0).
In assay [5] the target is DNA topoisomerase 2-alpha (Homo sapiens, UniProt P11388).
Assay [6] addresses DnaJ homolog subfamily A member 1 (Homo sapiens, UniProt P31689).
Assay [7] has as its target Serine/threonine-protein kinase MRCK gamma (Homo sapiens, UniProt Q6DT37).
For assay [8], the target named is Protein-tyrosine kinase 2-beta (Homo sapiens, UniProt Q14289).
Assay [9] concerns the target Serine/threonine-protein kinase PAK 4 (Homo sapiens, UniProt O96013).
Assay [10] has as its target T4, Serine/threonine-protein kinase NLK (Homo sapiens, UniProt Q9UBE8).
T4 sequence (Q9UBE8 whole entry): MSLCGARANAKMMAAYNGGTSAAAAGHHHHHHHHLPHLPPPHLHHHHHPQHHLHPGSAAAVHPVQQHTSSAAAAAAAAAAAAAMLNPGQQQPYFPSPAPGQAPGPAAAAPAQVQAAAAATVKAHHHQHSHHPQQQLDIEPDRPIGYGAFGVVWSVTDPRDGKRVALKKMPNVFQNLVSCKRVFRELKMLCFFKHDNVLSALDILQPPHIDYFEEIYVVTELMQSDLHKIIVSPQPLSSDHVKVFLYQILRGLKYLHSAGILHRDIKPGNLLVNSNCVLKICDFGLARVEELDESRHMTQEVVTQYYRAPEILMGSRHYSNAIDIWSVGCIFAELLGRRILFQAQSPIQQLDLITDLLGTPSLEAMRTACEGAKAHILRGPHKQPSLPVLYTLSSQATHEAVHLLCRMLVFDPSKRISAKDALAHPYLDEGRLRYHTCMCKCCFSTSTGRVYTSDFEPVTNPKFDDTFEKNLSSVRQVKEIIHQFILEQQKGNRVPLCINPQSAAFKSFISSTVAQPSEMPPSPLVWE

The target in assay [11] is 26S proteasome regulatory subunit 6B (Homo sapiens, UniProt P43686).
Assay [12] deals with Mitogen-activated protein kinase 3 (Homo sapiens, UniProt P27361).
Assay [13] concerns the target G protein-coupled receptor kinase 6 (Homo sapiens, UniProt P43250).
Further: in the data inactive means no Kd found up to 30 µM.

Chain of 26S proteasome regulatory subunit 6B (P43686 whole entry): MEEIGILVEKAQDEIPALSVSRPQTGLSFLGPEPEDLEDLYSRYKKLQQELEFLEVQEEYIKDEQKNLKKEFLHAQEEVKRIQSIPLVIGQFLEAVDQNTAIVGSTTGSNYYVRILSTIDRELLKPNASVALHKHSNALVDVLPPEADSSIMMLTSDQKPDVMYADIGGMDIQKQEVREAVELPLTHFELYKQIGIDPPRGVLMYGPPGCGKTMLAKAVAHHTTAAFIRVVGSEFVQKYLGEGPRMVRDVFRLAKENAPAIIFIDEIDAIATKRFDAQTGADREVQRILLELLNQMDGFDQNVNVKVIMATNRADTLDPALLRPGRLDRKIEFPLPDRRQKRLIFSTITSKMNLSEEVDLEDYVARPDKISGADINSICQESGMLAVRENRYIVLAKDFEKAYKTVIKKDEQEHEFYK
Chain of Myosin-14 (Q7Z406 whole entry): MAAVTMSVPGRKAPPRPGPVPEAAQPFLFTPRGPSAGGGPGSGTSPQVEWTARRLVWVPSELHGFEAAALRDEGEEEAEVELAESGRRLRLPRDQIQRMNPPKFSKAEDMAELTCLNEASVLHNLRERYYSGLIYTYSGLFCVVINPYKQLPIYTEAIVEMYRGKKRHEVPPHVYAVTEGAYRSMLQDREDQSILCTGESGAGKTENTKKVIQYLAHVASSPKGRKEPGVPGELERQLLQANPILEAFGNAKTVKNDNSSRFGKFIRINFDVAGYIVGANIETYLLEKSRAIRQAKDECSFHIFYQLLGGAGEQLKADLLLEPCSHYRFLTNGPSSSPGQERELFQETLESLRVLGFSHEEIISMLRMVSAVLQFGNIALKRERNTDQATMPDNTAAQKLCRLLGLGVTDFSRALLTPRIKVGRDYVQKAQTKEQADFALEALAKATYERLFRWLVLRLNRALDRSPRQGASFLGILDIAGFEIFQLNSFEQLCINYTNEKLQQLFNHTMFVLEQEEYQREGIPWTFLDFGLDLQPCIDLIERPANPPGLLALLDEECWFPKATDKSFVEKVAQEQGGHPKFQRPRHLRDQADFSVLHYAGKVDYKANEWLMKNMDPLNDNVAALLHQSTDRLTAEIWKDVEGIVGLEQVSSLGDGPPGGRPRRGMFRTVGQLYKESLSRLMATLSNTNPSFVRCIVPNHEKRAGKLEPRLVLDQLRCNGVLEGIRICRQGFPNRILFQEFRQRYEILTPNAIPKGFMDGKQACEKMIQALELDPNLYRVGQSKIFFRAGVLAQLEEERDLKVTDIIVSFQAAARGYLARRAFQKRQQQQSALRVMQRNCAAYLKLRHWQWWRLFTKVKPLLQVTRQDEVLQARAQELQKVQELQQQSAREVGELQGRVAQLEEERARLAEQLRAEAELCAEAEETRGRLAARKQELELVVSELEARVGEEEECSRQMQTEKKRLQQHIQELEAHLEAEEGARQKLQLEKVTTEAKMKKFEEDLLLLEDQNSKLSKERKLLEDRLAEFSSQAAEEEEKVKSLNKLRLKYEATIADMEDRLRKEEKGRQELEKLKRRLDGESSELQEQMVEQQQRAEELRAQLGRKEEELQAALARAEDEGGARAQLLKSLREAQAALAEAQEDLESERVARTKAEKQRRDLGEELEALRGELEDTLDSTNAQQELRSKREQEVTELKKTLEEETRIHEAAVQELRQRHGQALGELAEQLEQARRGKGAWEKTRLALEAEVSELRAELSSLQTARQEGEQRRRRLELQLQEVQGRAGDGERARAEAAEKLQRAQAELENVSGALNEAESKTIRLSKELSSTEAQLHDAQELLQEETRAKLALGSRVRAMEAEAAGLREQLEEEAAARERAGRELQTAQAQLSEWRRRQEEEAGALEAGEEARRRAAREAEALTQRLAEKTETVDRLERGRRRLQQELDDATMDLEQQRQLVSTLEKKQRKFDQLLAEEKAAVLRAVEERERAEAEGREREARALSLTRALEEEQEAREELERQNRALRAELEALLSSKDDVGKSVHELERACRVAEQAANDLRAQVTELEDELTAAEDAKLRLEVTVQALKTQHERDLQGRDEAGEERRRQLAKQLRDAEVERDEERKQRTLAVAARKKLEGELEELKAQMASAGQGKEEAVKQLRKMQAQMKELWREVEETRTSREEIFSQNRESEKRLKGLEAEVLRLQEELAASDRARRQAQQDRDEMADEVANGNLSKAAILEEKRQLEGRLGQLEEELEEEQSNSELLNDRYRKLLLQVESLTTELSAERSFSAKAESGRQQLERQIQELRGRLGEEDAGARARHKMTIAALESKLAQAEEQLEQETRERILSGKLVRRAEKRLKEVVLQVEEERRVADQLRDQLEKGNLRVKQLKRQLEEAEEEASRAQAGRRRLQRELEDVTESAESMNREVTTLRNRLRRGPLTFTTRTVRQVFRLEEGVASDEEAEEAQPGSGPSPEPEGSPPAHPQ
Chain of Aurora kinase B (Q96GD4 whole entry): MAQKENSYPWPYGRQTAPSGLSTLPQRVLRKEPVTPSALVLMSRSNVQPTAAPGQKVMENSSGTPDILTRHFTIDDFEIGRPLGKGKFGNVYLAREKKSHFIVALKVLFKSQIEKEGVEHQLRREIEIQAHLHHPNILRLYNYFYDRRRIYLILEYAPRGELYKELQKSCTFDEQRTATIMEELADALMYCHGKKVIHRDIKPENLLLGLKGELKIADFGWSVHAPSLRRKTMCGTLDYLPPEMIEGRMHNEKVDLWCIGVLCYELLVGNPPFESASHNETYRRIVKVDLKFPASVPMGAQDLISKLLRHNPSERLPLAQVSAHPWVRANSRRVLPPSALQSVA
Chain of G protein-coupled receptor kinase 6 (P43250 whole entry): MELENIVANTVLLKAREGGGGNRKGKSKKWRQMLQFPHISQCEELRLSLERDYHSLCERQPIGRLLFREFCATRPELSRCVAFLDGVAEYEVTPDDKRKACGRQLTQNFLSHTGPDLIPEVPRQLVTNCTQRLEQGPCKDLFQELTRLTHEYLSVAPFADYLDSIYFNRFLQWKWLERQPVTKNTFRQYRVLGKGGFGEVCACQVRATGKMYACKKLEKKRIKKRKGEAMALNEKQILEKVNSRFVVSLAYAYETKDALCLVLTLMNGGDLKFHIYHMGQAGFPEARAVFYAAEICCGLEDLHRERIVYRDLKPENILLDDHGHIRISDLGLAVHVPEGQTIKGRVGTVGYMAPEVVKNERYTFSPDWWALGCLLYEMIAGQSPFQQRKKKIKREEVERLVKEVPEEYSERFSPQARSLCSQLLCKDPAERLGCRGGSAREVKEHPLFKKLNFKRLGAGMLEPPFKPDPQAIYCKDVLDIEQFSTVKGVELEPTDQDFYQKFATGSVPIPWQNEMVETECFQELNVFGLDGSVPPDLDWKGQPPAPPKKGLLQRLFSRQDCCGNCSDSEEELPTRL
Chain of Obg-like ATPase 1 (Q9NTK5 whole entry, looked up): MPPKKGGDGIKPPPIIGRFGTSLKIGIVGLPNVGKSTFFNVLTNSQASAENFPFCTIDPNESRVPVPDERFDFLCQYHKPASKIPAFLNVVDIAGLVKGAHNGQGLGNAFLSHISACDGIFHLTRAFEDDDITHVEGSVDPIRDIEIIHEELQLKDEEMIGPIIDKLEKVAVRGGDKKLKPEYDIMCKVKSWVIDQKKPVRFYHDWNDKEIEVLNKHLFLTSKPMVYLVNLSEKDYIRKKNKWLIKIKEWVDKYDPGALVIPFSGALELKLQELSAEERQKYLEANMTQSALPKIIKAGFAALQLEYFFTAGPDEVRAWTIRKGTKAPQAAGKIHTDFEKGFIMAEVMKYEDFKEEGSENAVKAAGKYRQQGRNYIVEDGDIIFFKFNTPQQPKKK
Chain of Mitogen-activated protein kinase 3 (P27361 whole entry): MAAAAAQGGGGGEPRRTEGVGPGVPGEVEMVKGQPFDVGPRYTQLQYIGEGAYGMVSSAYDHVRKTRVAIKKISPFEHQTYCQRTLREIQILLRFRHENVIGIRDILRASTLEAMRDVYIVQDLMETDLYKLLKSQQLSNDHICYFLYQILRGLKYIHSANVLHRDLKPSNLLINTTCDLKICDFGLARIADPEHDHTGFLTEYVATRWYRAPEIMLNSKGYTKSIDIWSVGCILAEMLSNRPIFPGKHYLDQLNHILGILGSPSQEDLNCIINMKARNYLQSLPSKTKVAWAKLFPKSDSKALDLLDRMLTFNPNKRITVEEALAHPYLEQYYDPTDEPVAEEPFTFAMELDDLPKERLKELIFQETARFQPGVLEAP
Chain of DnaJ homolog subfamily A member 1 (P31689 whole entry): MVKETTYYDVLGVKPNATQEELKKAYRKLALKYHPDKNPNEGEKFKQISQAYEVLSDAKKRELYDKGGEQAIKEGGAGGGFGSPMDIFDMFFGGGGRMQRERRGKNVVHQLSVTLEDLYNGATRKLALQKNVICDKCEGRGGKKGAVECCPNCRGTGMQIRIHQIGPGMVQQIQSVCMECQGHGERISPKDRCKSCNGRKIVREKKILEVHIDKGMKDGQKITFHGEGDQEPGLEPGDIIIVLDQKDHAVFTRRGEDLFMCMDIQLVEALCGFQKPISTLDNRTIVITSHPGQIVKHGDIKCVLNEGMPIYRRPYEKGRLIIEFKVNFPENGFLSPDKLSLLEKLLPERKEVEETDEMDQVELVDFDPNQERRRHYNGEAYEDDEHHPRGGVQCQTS
Chain of NADH dehydrogenase [ubiquinone] 1 alpha subcomplex subunit 13 (Q9P0J0 whole entry, one chain of several): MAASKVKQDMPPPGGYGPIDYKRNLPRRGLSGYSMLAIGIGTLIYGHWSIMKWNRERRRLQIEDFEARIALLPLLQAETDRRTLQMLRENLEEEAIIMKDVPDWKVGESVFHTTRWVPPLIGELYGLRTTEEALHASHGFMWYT

With `Cc1cc(Nc2ncnc3ccc(NC4=NC(C)(C)CO4)cc23)ccc1Oc1ccn2ncnc2c1` [TUCATINIB], the Kd (as a rule, a measure of binding affinity in units of concentration) is > 30 µM (inactive) in assay [1]; > 30 µM (inactive) on Aurora kinase B; > 30 µM (inactive) in assay [2]; 2.46 µM (active) in assay [3]; > 30 µM (inactive) in [4]; > 30 µM (inactive) in assay [5]. Further, the Kd in assay [6] was > 30 µM (inactive); in [7] it was > 30 µM (inactive); in assay [8], > 30 µM (inactive); in [9], > 30 µM (inactive); in assay [10], > 30 µM (inactive); at Myosin-14 it was 0.188 µM. In addition, the Kd (in [11]; in [12]; in assay [13]; on Obg-like ATPase 1) was > 30 µM (inactive) throughout.

The values are drawn from ChEMBL document CHEMBL3991601, “The target landscape of clinical kinase drugs” (Science, 2017).
